According to the CheMixHub viscosity set:

Test: xn = mol fraction of the nth substance listed

CC(O)CO (stereo not given) + CC(C)=O
viscosity [mPa·s], 100 kPa
Conditions | x2 = 0.1 | x2 = 0.2 | x2 = 0.2998 | x2 = 0.3999 | x2 = 0.5004 | x2 = 0.5999 | x2 = 0.6999 | x2 = 0.8 | x2 = 0.9001
293.15 K | 29.94 | 14.46 | 7.145 | 3.875 | 2.363 | 1.532 | 0.934 | 0.601 | 0.4671
298.15 K | 22.95 | 11.54 | 5.918 | 3.303 | 2.066 | 1.356 | 0.8597 | 0.5688 | 0.4463
303.15 K | 17.9 | 9.34 | 4.965 | 2.882 | 1.821 | 1.201 | 0.7943 | 0.5379 | 0.4209
308.15 K | 14.19 | 7.662 | 4.208 | 2.55 | 1.614 | 1.103 | 0.7356 | 0.5208 | 0.3953
313.15 K | 11.41 | 6.362 | 3.602 | 2.189 | 1.44 | 0.9924 | 0.6822 | 0.4945 | 0.377
318.15 K | 9.297 | 5.341 | 3.109 | 1.971 | 1.298 | 0.8944 | 0.6317 | 0.4731 | 0.3691
323.15 K | 7.672 | 4.529 | 2.71 | 1.717 | 1.175 | 0.815 | 0.5813 | 0.4533 | 0.3477

ClC=C(Cl)Cl + CC(C)CCO
303.15 K, 101.3 kPa
Conditions | viscosity [mPa·s]
x1 = 0.0921 | 2.553
x1 = 0.2031 | 2.01
x1 = 0.2728 | 1.705
x1 = 0.4124 | 1.237
x1 = 0.5054 | 1.027
x1 = 0.6208 | 0.85
x1 = 0.7016 | 0.758
x1 = 0.814 | 0.666
x1 = 0.9047 | 0.597

CC(O)CO (stereo not given) + CC(C)CO
viscosity [mPa·s], 100 kPa
Conditions | x2 = 0.101 | x2 = 0.2 | x2 = 0.3 | x2 = 0.4 | x2 = 0.5 | x2 = 0.6 | x2 = 0.7 | x2 = 0.8 | x2 = 0.9
298.15 K | 29.95 | 22.5 | 16.76 | 12.73 | 9.74 | 7.778 | 6.056 | 4.843 | 3.968
303.15 K | 22.85 | 17.38 | 13.28 | 10.21 | 7.878 | 6.366 | 5.037 | 4.08 | 3.366
308.15 K | 17.8 | 13.79 | 10.5 | 8.284 | 6.476 | 5.284 | 4.197 | 3.45 | 2.869
313.15 K | 14.12 | 11.03 | 8.532 | 6.802 | 5.362 | 4.42 | 3.54 | 2.939 | 2.471
318.15 K | 11.32 | 8.884 | 6.942 | 5.599 | 4.486 | 3.744 | 3.013 | 2.533 | 2.129
323.15 K | 9.291 | 7.286 | 5.767 | 4.693 | 3.766 | 3.185 | 2.59 | 2.192 | 1.846

ClC=C(Cl)Cl + CC(C)CO
viscosity [mPa·s]
Conditions | 293.15 K | 303.15 K | 313.15 K
101.3 kPa, x1 = 0.1086 | – | 2.134 | –
101.3 kPa, x1 = 0.2127 | – | 1.627 | –
101.3 kPa, x1 = 0.3178 | – | 1.273 | –
101.3 kPa, x1 = 0.4018 | – | 1.075 | –
101.3 kPa, x1 = 0.5178 | – | 0.889 | –
101.3 kPa, x1 = 0.6042 | – | 0.795 | –
101.3 kPa, x1 = 0.7191 | – | 0.703 | –
101.3 kPa, x1 = 0.8127 | – | 0.644 | –
101.3 kPa, x1 = 0.9144 | – | 0.581 | –
101.33 kPa, x2 = 0.15 | 0.8993 | 0.7678 | 0.6502
101.33 kPa, x2 = 0.3 | 1.228 | 1.005 | 0.8284
101.33 kPa, x2 = 0.45 | 1.556 | 1.242 | 1.007
101.33 kPa, x2 = 0.6 | 1.884 | 1.478 | 1.185
101.33 kPa, x2 = 0.75 | 2.213 | 1.715 | 1.365
101.33 kPa, x2 = 0.9 | 2.541 | 1.952 | 1.542

NC1CCCCC1 + CC(C)CO
Conditions | viscosity [mPa·s]
293.15 K, 100 kPa, x2 = 0.1205 | 2.575
298.15 K, 101 kPa, x1 = 0.0767 | 3.274
298.15 K, 101 kPa, x1 = 0.1574 | 3.183
298.15 K, 101 kPa, x1 = 0.3325 | 3.067
298.15 K, 101 kPa, x1 = 0.4277 | 2.976
298.15 K, 101 kPa, x1 = 0.5285 | 2.859
298.15 K, 101 kPa, x1 = 0.6355 | 2.681
298.15 K, 101 kPa, x1 = 0.7493 | 2.447
298.15 K, 101 kPa, x1 = 0.8706 | 2.165
308.15 K, 100 kPa, x2 = 0.6492 | 2.275

ClC=C(Cl)Cl + CC(C)O
viscosity [mPa·s]
Conditions | 293.15 K | 303.15 K | 313.15 K
101.3 kPa, x1 = 0.1036 | – | 1.363 | –
101.3 kPa, x1 = 0.2204 | – | 1.053 | –
101.3 kPa, x1 = 0.3432 | – | 0.849 | –
101.3 kPa, x1 = 0.4172 | – | 0.765 | –
101.3 kPa, x1 = 0.5133 | – | 0.686 | –
101.3 kPa, x1 = 0.6024 | – | 0.641 | –
101.3 kPa, x1 = 0.7196 | – | 0.603 | –
101.3 kPa, x1 = 0.8017 | – | 0.583 | –
101.3 kPa, x1 = 0.9028 | – | 0.556 | –
101.33 kPa, x2 = 0.15 | 0.7418 | 0.6628 | 0.5527
101.33 kPa, x2 = 0.3 | 0.9127 | 0.7947 | 0.6334
101.33 kPa, x2 = 0.45 | 1.083 | 0.9265 | 0.7141
101.33 kPa, x2 = 0.6 | 1.257 | 1.058 | 0.7948
101.33 kPa, x2 = 0.75 | 1.428 | 1.19 | 0.8775
101.33 kPa, x2 = 0.9 | 1.596 | 1.322 | 0.9562

CCCCCCCCCCCCCCO + CC(C)[C@@H]1CC[C@@H](C)C[C@H]1O
100 kPa, x1 = 0.333
Conditions | viscosity [mPa·s]
293.15 K | 44.69
298.15 K | 31.86
303.15 K | 23.35
308.15 K | 17.54
313.15 K | 13.47
318.15 K | 10.53
323.15 K | 8.38

ClC=C(Cl)Cl + CCC(C)(C)O
298.15 K, 101 kPa
Conditions | viscosity [mPa·s]
x2 = 0.0494 | 0.556
x2 = 0.101 | 0.576
x2 = 0.1994 | 0.626
x2 = 0.2988 | 0.69
x2 = 0.3984 | 0.779
x2 = 0.4991 | 0.909
x2 = 0.5974 | 1.08
x2 = 0.7 | 1.353
x2 = 0.7976 | 1.723
x2 = 0.9001 | 2.365

NC1CCCCC1 + CCC(C)=O
298.15 K, 101 kPa
Conditions | viscosity [mPa·s]
x1 = 0.0747 | 0.5316
x1 = 0.1538 | 0.6621
x1 = 0.2376 | 0.8418
x1 = 0.3265 | 1.042
x1 = 0.421 | 1.235
x1 = 0.5217 | 1.449
x1 = 0.6291 | 1.625
x1 = 0.7441 | 1.781
x1 = 0.8674 | 1.823
x2 = 0.1326 | 1.574
x2 = 0.2559 | 1.409
x2 = 0.3708 | 1.257
x2 = 0.4783 | 1.115
x2 = 0.579 | 0.978
x2 = 0.6735 | 0.846
x2 = 0.7624 | 0.719
x2 = 0.8462 | 0.599
x2 = 0.9252 | 0.481
